In US20090053751A1, “Chemiluminescent Method and Device for Evaluating the In Vivo Functional State of Phagocytes” (priority 2005, published 2009):

Tested on: phagocytes
Experiment: Luminol-amplified chemiluminescence (CL) kinetics of zymosan-stimulated diluted whole blood
Type: cell-based, human
Description: Zymosan-A (Sigma Chemical Co.) was used as a phagocyte-stimulating agent. It was opsonized for 30 min at 37° C. in sample serum (20 mg/mL) and washed twice in 0.9% NaCl. The zymosan suspension in Krebs-Ringer phosphate medium (KRP) was prepared immediately prior to use. KRP was composed of 119 mmol/L NaCl, 4.75 mmol/L KCl, 0.420 mmol/L CaCl2, 1.19 mmol/L MgSO4.7H2O, 16.6 mmol/L sodium phosphate buffer, pH 7.4 and 5.56 mmol/L glucose (De Sole et al., 1983). Luminol (Sigma Chemical Co.) was used to amplify the chemiluminescence activity. A luminol stock solution (10 mmol/L in dimethyl sulfoxide) was stored in a dark place at room temperature and diluted 1:10 (v/v) with KRP just before use. In all experiments, the final concentration of luminol was 100 μmol/L. In some experiments formylmethionyl-leucyl-phenylalanine (fMLP—Sigma Chemical Co.) was used for priming (5 nM) of CL emitting cells. All reagents used were of analytical grade and the water was glass-distilled.
Diluted whole blood (1:100 v/v final dilution) was used to avoid artifacts due to the isolation of PMNs. Peripheral venous blood from human adults was collected in heparinized tubes (20 U/mL). Samples with a total volume of 200 μL contained diluted whole fresh blood, luminol and zymosan in KRP. […] After diluted blood was added, the sample content was mixed and CL measured. […]

| SMILES | phagocytosis-related parts of the CL response (diluted whole blood preincubated at 37° C. for 5 minutes with 1.5 mmol/liter of aspirin, FIG. 6A) | relative contribution of extracellularly and intracellularly produced ROS (derived kinetic parameters) (diluted whole blood preincubated at 37° C. for 5 minutes with 3 nmol/liter fMLP, FIG. 2) |
| --- | --- | --- |
| CC(=O)Oc1ccccc1C(=O)O [aspirin] | significant decrease | – |
| CSCC[C@H](NC=O)C(=O)N[C@@H](CC(C)C)C(=O)N[C@@H](Cc1ccccc1)C(=O)O [fMLP, N-formylmethionyl leucyl phenylalanine] | – | more significant for the extracellular ROS production |
